Read-outs that look alike come from different tables or passages of the source.
Key:
Format in all cases: cell-based, human
MYB mRNA = test: Splicing RT-qPCR assay, MYB canonical (CJ) and alternative (AJ) junction mRNA; conditions: Homo sapiens; for AC50: read-out: MYB AJ (AC50, increase in alternative junction mRNA)
Summary of the method: (§1)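 A673 or K562 cells were treated 24 h at 37 °C with an 11-point 3-fold compound dilution series (top 10 uM, DMSO ≤0.25%). Lysates went to one-step RT-qPCR measuring canonical (CJ) and alternative-exon (AJ) junction transcripts, normalized to GAPDH, GUSB or PPIA.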

SMN2 mRNA = test: Splicing RT-qPCR gene panel, SMN2 canonical junction (CJ) mRNA; conditions: Homo sapiens, Tables 4A/4B, read-out: SMN2 (IC50, decrease in CJ mRNA, gene panel)
Summary of the method: (§2)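 A673 or K562 cells were treated 24 h at 37 °C with an 11-point 3-fold dilution series (top 10 uM, ≤0.25% DMSO). Canonical-junction mRNA was measured in lysates by one-step RT-qPCR, normalized to GAPDH, GUSB or PPIA and DMSO control (2^(−ΔΔCt)), expressed as percentage response.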

HTT mRNA [1] = test: Splicing RT-qPCR assay, HTT canonical (CJ) and alternative (AJ) junction mRNA; conditions: Homo sapiens, A673 or K562 cells, 24 hours compound treatment; for IC50: 24 h, read-out: HTT CJ (IC50, decrease in canonical junction mRNA); for AC50: read-out: HTT AJ (AC50, increase in alternative junction mRNA)
Summary of the method: as §1

Target C mRNA = test: Splicing RT-qPCR gene panel, Target C canonical junction (CJ) mRNA; conditions: Homo sapiens, Tables 4A/4B, read-out: Target C (IC50, decrease in CJ mRNA, gene panel)
Summary of the method: as §2

HTT mRNA [2] = test: Splicing RT-qPCR gene panel, HTT canonical junction (CJ) mRNA; conditions: Homo sapiens, Tables 4A/4B, read-out: HTT (IC50, decrease in CJ mRNA, gene panel)
Summary of the method: as §2

[3] = 24 h, A673 or K562 cells, 24 hours compound treatment, RT-qPCR
[4] = 24 h, A673 or K562 cells, 24 hours compound treatment, RT-qPCR, read-out: MYB CJ (IC50, decrease in canonical junction mRNA)
[5] = Tables 4A/4B, canonical junction qPCR panel, read-out: MYB (IC50, decrease in CJ mRNA, gene panel)

| Compound | AC50 (MYB mRNA; [3]) | IC50 (MYB mRNA; [4]) | IC50 (MYB mRNA; [5]) | IC50 (SMN2 mRNA) | IC50 (HTT mRNA [1]) | AC50 (HTT mRNA [1]) | IC50 (Target C mRNA) | IC50 (HTT mRNA [2]) |
| --- | --- | --- | --- | --- | --- | --- | --- | --- |
| CCn1cc2c(N3CC[C@@H](NC4CC4)C3)ccc(C(=O)Nc3cc(F)c4nc(C)cn4c3)c2n1 [Compound 409, (R)-4-(3-(cyclopropylamino)pyrrolidin-1-yl)-2-ethyl-N-(8-fluoro-2-methylimidazo[1,2-a]pyridin-6-yl)-2H-indazole-7-carboxamide] | < 100 nM | 100 to 1000 nM | 100 to 1000 nM | < 100 nM | > 10000 nM | > 10000 nM | > 10000 nM | > 10000 nM |
| CCn1cc2c(N3CC[C@H](NC4CC4)C3)ccc(C(=O)Nc3cc(F)c4nc(C)cn4c3)c2n1 [Compound 410, (S)-4-(3-(cyclopropylamino)pyrrolidin-1-yl)-2-ethyl-N-(8-fluoro-2-methylimidazo[1,2-a]pyridin-6-yl)-2H-indazole-7-carboxamide] | 1000 to 10000 nM | 100 to 1000 nM | 100 to 1000 nM | < 100 nM | > 10000 nM | > 10000 nM | > 10000 nM | > 10000 nM |
| Cc1cn2cc(NC(=O)c3ccc(N4CCNCC4)c4cn(CC#N)nc34)cc(F)c2n1 [Compound 413, 2-(cyanomethyl)-N-{8-fluoro-2-methylimidazo[1,2-a]pyridin-6-yl}-4-(piperazin-1-yl) indazole-7-carboxamide] | < 100 nM | < 100 nM | < 100 nM | < 100 nM | 1000 to 10000 nM | 1000 to 10000 nM | > 10000 nM | 1000 to 10000 nM |
| Cc1cn2cc(NC(=O)c3ccc(N4CCNCC4)c4cn(CC56CC(O)(C5)C6)nc34)cc(F)c2n1 [Compound 414, N-{8-fluoro-2-methylimidazo[1,2-a]pyridin-6-yl}-2-({3-hydroxybicyclo[1.1.1]pentan-1-yl}methyl)-4-(piperazin-1-yl) indazole-7-carboxamide 2,2,2-trifluoroacetate] | 1000 to 10000 nM | 1000 to 10000 nM | 1000 to 10000 nM | 1000 to 10000 nM | > 10000 nM | > 10000 nM | > 10000 nM | > 10000 nM |
| CCn1cc2c(N3CCN4C(=O)OCC4C3)ccc(C(=O)Nc3cc(F)c4nc(C)cn4c3)c2n1 (stereo not drawn) [Compound 415, 2-ethyl-N-{8-fluoro-2-methylimidazo[1,2-a]pyridin-6-yl}-4-{3-oxo-tetrahydro-1H-[1,3]oxazolo[3,4-a]pyrazin-7-yl}indazole-7-carboxamide] | 100 to 1000 nM | 100 to 1000 nM | 100 to 1000 nM | 100 to 1000 nM | 100 to 1000 nM | 100 to 1000 nM | 100 to 1000 nM | 100 to 1000 nM |
| C=C(C)n1ncc2c(N3CCNCC3)ccc(C(=O)Nc3cc(F)c4nc(C)cn4c3)c21 [Compound 416, N-(8-fluoro-2-methylimidazo[1,2-a]pyridin-6-yl)-4-(piperazin-1-yl)-1-(prop-1-en-2-yl)-1H-indazole-7-carboxamide] | > 10000 nM | > 10000 nM | > 10000 nM | 1000 to 10000 nM | > 10000 nM | > 10000 nM | > 10000 nM | > 10000 nM |
| CNC1CCN(c2ccc(C(=O)Nc3cn4cc(C)nc4c(OC)n3)c3nn(C)cc23)C1 (stereo not drawn) [Compound 417] | < 100 nM | < 100 nM | < 100 nM | < 100 nM | 1000 to 10000 nM | > 10000 nM | > 10000 nM | > 10000 nM |
| CNC1CCN(c2ccc(C(=O)Nc3cn4cc(C)nc4c(OC)n3)c3nn(CCOC)cc23)C1 (stereo not drawn) [Compound 418, N-{8-methoxy-2-methylimidazo[1,2-a]pyrazin-6-yl}-2-(2-methoxyethyl)-4-[3-(methylamino)pyrrolidin-1-yl]indazole-7-carboxamide] | 1000 to 10000 nM | 100 to 1000 nM | 100 to 1000 nM | < 100 nM | > 10000 nM | > 10000 nM | > 10000 nM | > 10000 nM |
| CNC1CCN(c2ccc(C(=O)Nc3cn4cc(C)nc4c(N(C)C)n3)c3nn(C)cc23)C1 (stereo not drawn) [Compound 419, N-[8-(dimethylamino)-2-methylimidazo[1,2-a]pyrazin-6-yl]-2-methyl-4-[3-(methylamino)pyrrolidin-1-yl]indazole-7-carboxamide] | > 10000 nM | > 10000 nM | > 10000 nM | > 10000 nM | > 10000 nM | > 10000 nM | > 10000 nM | > 10000 nM |
